From patent EP4722228A1, “NEW COMPOUND TARGETING MUSK AND USE THEREOF” (The University of Tokyo, priority 2023, dated 2024) come the findings set out here.

Common to all, as to assay type: in vivo
Experiment [1] deals with rat PTMG model using anti-acetylcholine receptor monoclonal antibody (mAb35). As to the kind of experiment: Body weight change in rat PTMG model (myasthenia gravis model animals). The settings on record: 0 to 72 hr. The procedure: (§1) 5-week-old female rats (n=20, LEW/CrlCrlj, 4 weeks old when carried in, Jackson Laboratory Japan) were divided into four groups (Group A, Group B, Group C, and Group D) using body weight measurement results as indexes. Vehicle was administered to Group A, and the test compound MuSK7-pal dissolved in vehicle was administered intravenously to each of Group B (3 mg/kg), Group C (2 mg/kg), and Group D (1 mg/kg) (Day 0). Two hours after intravenous administration, an anti-nicotinic acetylcholine receptor monoclonal antibody (mAb35, National Hospital Organization Nagasaki Kawatana Medical Center) dissolved in PBS (pH 7.4) as a drug for inducing the pathology of myasthenia gravis was administered intraperitoneally to all animals at 200 µg/rat (Day 0). The vehicle, which was a solvent of the compound, was phosphate-buffered saline (PBS) at pH 7.4 containing 20% hydroxypropyl-β-cyclodextrin and 0.02% polysorbate 80 (the same applies to Example 3(2)).
Next, the body weight of the animals was measured before antibody administration (pre) and at 0, 9, 24, 33, 48, 57, and 72 hours (hr) after antibody administration. The movement, muscle strength, and grip strength of the animals were evaluated by the following tests.
as §1, with “(n=24,” for “(n=20,”, “(0.5” for “(3”, “(0.25” for “(2”, “(0.1” for “(1”, “0).” for “0). The vehicle, which was a solvent of the compound, was phosphate-buffered saline (PBS) at pH 7.4 containing 20% hydroxypropyl-β-cyclodextrin and 0.02% polysorbate 80 (the same applies to Example 3(2)).”
(§2) 5-week-old female rats (LEW/CrlCrlj, 4 weeks old when carried in, Jackson Laboratory Japan) were divided into three groups (Group A, Group B, and Group C) using body weight measurement results as indexes. The test compound (tetramer of Ub012 (EAAAK)3) dissolved in vehicle was administered intravenously to Group A (5 mg/kg) (n=5), the test compound (tetramer of Ub012(ΔGG) (EAAAK)3) dissolved in vehicle was administered intravenously to Group B (5 mg/kg) (n=5), and vehicle was administered intravenously to Group C (n=5), respectively (Day 0). Two hours after intravenous administration, an anti-nicotinic acetylcholine receptor monoclonal antibody (mAb35, National Hospital Organization Nagasaki Kawatana Medical Center) dissolved in PBS (pH 7.4) as a drug for inducing the pathology of myasthenia gravis was administered intraperitoneally to all animals at 200 µg/rat (Day 0).

Experiment [2] has the same test system. As to the kind of experiment: Grip Strength Test in rat PTMG model. The note with it: approx. 30 hours after antibody. As to the method:
as §1
Approximately 30 hours after antibody administration, the muscle strength of the rats was measured using a mouse grip strength meter (GRIP STRENGTH METER FOR MICE, MODEL MK-380M, Muromachi Kikai Co., Ltd.). Specifically, the rats were left for 15 minutes or longer, and after confirming that they were in a resting state, the forelimbs of the rats were made to grasp the mouse grip strength meter. Next, the bodies of the rats were pulled, and the scale of the grip strength meter at the point when the rats released the wire mesh was read (first measurement). The above procedure was repeated once more (second measurement). When the difference between the first and second measurement values was 20% or less, the average value thereof was used as the measurement value. When the difference was 20% or more, the above procedure was further performed once more (third measurement), and the average value of two measurements with close values among the three measurements was used as the measurement value.
(§3) 5-week-old female rats (n=24, LEW/CrlCrlj, 4 weeks old when carried in, Jackson Laboratory Japan) were divided into four groups (Group A, Group B, Group C, and Group D) using body weight measurement results as indexes. Vehicle was administered to Group A, and the test compound MuSK7-pal dissolved in vehicle was administered intravenously to each of Group B (0.5 mg/kg), Group C (0.25 mg/kg), and Group D (0.1 mg/kg) (Day 0). Two hours after intravenous administration, an anti-nicotinic acetylcholine receptor monoclonal antibody (mAb35, National Hospital Organization Nagasaki Kawatana Medical Center) dissolved in PBS (pH 7.4) as a drug for inducing the pathology of myasthenia gravis was administered intraperitoneally to all animals at 200 µg/rat (Day 0).
The Grip Strength Test was performed approximately 30 hours after antibody administration. The implementation procedure was the same as that in (1) B above.
as §2
The Grip Strength Test was performed approximately 30 hours after antibody administration. The implementation procedure was the same as that in Example 3(1) B.

For experiment [3] the test system is unchanged. As to the kind of experiment: Wire-hang Test (Hanging Wire Test) in rat PTMG model. The note with it: approx. 30 hours after antibody. As to the method:
as §1
Approximately 30 hours after antibody administration, the muscle strength of the rats was measured using a lid (made of wire mesh) of a lidded plastic cage (Clean 200-TPX cage; CL-0108-2, CLEA Japan, Inc.). Specifically, the rats were left for 15 minutes or longer, and after confirming that they were in a resting state, they were placed on the cage lid. Next, the cage lid was lightly shaken about three times so that the rats would grasp the cage lid, and the cage lid was turned upside down. The inverted lid was held at a height (about 60 cm from the floor), which was high enough to prevent the rats from getting down easily but low enough not to injure them if they fell. The latency until the rats fell from the cage lid was measured for up to 120 seconds.
as §3
The Wire-hang Test was performed approximately 30 hours after antibody administration. The implementation procedure was the same as that in (1) B above.
as §2
The Wire-hang Test was performed approximately 30 hours after antibody administration. The implementation procedure was the same as that in Example 3(1) B.

Where [4] appears, read: 0.1 mg/kg intravenously (Group D, Example 3(2)).
Setting [5] is: 0.25 mg/kg intravenously (Group C, Example 3(2)).
Where [6] appears, read: 0.5 mg/kg intravenously (Group B, Example 3(2)).

Bridge positions count the residues as written; N and C are the ends. Square brackets hold non-standard residues; d marks the D form. Peptide text beside a SMILES is read from it. I, II: the chains in the order shown. * marks the point of attachment. Palmitoyl = CCCCCCCCCCCCCCCC(=O)*; PEG3 = NCCOCCOCCOCCC(=O)O; Dap = NC[C@H](N)C(=O)O

Consider `CCCCCCCCCCCCCCCC(=O)NCCCC[C@H](NC(=O)[C@H](CNC(=O)CCOCCOCCOCCNC(=O)CNC(=O)[C@@H]1CSCC(=O)N[C@H](Cc2ccc(O)cc2)C(=O)N2CCC[C@H]2C(=O)N[C@@H](CO)C(=O)N[C@@H](Cc2ccc(O)cc2)C(=O)N[C@@H](Cc2c[nH]cn2)C(=O)N[C@@H]([C@@H](C)O)C(=O)N[C@@H](CC(N)=O)C(=O)N[C@@H](C(C)C)C(=O)N[C@@H](C(C)C)C(=O)N[C@@H](C)C(=O)N[C@@H](CO)C(=O)N[C@@H](CC(C)C)C(=O)N[C@@H](CCCCN)C(=O)N[C@@H](CCCNC(=N)N)C(=O)N1)NC(=O)CCOCCOCCOCCNC(=O)CNC(=O)[C@@H]1CSCC(=O)N[C@H](Cc2ccc(O)cc2)C(=O)N2CCC[C@H]2C(=O)N[C@@H](CO)C(=O)N[C@@H](Cc2ccc(O)cc2)C(=O)N[C@@H](Cc2c[nH]cn2)C(=O)N[C@@H]([C@@H](C)O)C(=O)N[C@@H](CC(N)=O)C(=O)N[C@@H](C(C)C)C(=O)N[C@@H](C(C)C)C(=O)N[C@@H](C)C(=O)N[C@@H](CO)C(=O)N[C@@H](CC(C)C)C(=O)N[C@@H](CCCCN)C(=O)N[C@@H](CCCNC(=N)N)C(=O)N1)C(N)=O` [MuSK7-pal] (I: {CH2CO}-[dY]PSYHTNVVASLKRCG[PEG3][Dap]K(Palmitoyl)-NH2 / II: {CH2CO}-[dY]PSYHTNVVASLKRCG[PEG3]; amide I:18-II:C; thioether I:N-I:15, II:N-II:15), for which the body weight result is “milder than that in Group A” in experiment [1] (0.1 mg/kg intravenously 2 h before mAb35 (Group D, Example 3(2))); “milder than that in Group A” in experiment [1] (0.25 mg/kg intravenously 2 h before mAb35 (Group C, Example 3(2))); “milder than that in Group A” in experiment [1] (0.5 mg/kg intravenously 2 h before mAb35 (Group B, Example 3(2))); “almost no significant decrease in body weight” in experiment [1] (1 mg/kg intravenously 2 h before mAb35 (Group D, Example 3(1))); “milder than that in Group A” in experiment [1] (2 mg/kg intravenously 2 h before mAb35 (Group C, Example 3(1))); “milder than that in Group A” in experiment [1] (3 mg/kg intravenously 2 h before mAb35 (Group B, Example 3(1))). Further, the grip strength in experiment [2] (setting [4]) came to 452 g; in experiment [2] (setting [5]), 476 g; in experiment [2] (setting [6]), 461 g; in experiment [2] (1 mg/kg intravenously (Group D, Example 3(1))), 577 g; in experiment [2] (2 mg/kg intravenously (Group C, Example 3(1))) it was 474 g; in experiment [2] (3 mg/kg intravenously (Group B, Example 3(1))), 467 g. Moreover, the “mean latency to fall” value in experiment [3] (setting [4]) turned out to be 25.3 s; in experiment [3] (setting [5]), 32.3 s; in experiment [3] (setting [6]) it was 11.3 s; in experiment [3] (1 mg/kg intravenously (Group D, Example 3(1)), max 120 seconds), 69.6 s; in experiment [3] (2 mg/kg intravenously (Group C, Example 3(1)), max 120 seconds), 29.2 s; in experiment [3] (3 mg/kg intravenously (Group B, Example 3(1)), max 120 seconds) it was 17.6 s.
